# Read-outs that look alike come from different tables or passages of the source.
# Test system: patients with advanced metastatic cancer
# Text: In this phase 1 study, dose escalation was followed by expansion cohorts of once-daily, oral M2698 in continuous 21-day cycles. Primary objectives were to determine the maximum tolerated dose (MTD), dose-limiting toxicities (DLTs), and recommended phase 2 dose (RP2D). Secondary objectives were to assess safety and tolerability, pharmacokinetics (PK, including food effect) and antitumor activity. Pharmacodynamic biomarker assessments were exploratory. Treatment was discontinued if there was disease progression, toxicity or consent withdrawal.
# In Part 1, M2698 monotherapy was investigated in a dose escalation with a food effect cohort. In Part 2, M2698 was investigated as monotherapy (expansion cohort) to further characterize safety, tolerability and pharmacokinetics, and assess antitumor activity in PAM + patients without confounding markers (exploratory).
# Dose escalation analysis included all patients who experienced a DLT and those who received ≥ 80% of planned M2698 doses in cycle 1 without experiencing a DLT. Safety analysis included all patients who received ≥ 1 dose of M2698. PK analysis included all patients who received ≥ 1 dose of M2698 and had measurable plasma concentrations. Dose proportionality was tested using the power model (linear regression approach on the log -transformed scale).
structure (smiles),measurement,setting,value
NC(=O)c1cccc2c(N[C@H](CN3CCC3)c3ccc(Cl)c(C(F)(F)F)c3)ncnc12 [M2698],M2698-related TEAE: Dysphagia,380 mg n=4,0
same,M2698-related TEAE: Energy increased,380 mg n=4,0
same,M2698-related TEAE: Erythema,380 mg n=4,0
same,M2698-related TEAE: Euphoric mood,380 mg n=4,0
same,M2698-related TEAE: Eye disorders,380 mg n=4,0
same,M2698-related TEAE: Fatigue,380 mg n=4,0
same,M2698-related TEAE: Gamma-glutamyltransferase increased,380 mg n=4,0
same,M2698-related TEAE: Gastrointestinal disorders,380 mg n=4,2
same,M2698-related TEAE: Gastrooesophageal reflux disease,380 mg n=4,0
same,M2698-related TEAE: General disorders and administration site conditions,380 mg n=4,0
same,M2698-related TEAE: Headache,380 mg n=4,0
same,M2698-related TEAE: Hyperhidrosis,380 mg n=4,0
same,M2698-related TEAE: Hypokalaemia,380 mg n=4,0
same,M2698-related TEAE: Hypomagnesaemia,380 mg n=4,0
same,M2698-related TEAE: Insomnia,380 mg n=4,0
same,M2698-related TEAE: Investigations,380 mg n=4,1
same,M2698-related TEAE: Lipase increased,380 mg n=4,0
same,M2698-related TEAE: Lymphopenia,380 mg n=4,0
same,M2698-related TEAE: Metabolism and nutrition disorders,380 mg n=4,0
same,M2698-related TEAE: Mucosal inflammation,380 mg n=4,0
same,M2698-related TEAE: Nausea,380 mg n=4,1
same,M2698-related TEAE: Nervous system disorders,380 mg n=4,1
same,M2698-related TEAE: Nightmare,380 mg n=4,0
same,M2698-related TEAE: Onychomadesis,380 mg n=4,0
same,M2698-related TEAE: Paranoia,380 mg n=4,0
same,M2698-related TEAE: Photosensitivity reaction,380 mg n=4,0
same,M2698-related TEAE: Posterior reversible encephalopathy syndrome,380 mg n=4,1
same,M2698-related TEAE: Pruritus generalised,380 mg n=4,0
same,M2698-related TEAE: Psychiatric disorders,380 mg n=4,0
same,M2698-related TEAE: Rash,380 mg n=4,0
same,M2698-related TEAE: Rash maculo-papular,380 mg n=4,0
same,M2698-related TEAE: Skin and subcutaneous tissue disorders,380 mg n=4,0
same,M2698-related TEAE: Subjects with at least one event,380 mg n=4,3
same,M2698-related TEAE: Transaminases increased,380 mg n=4,0
same,M2698-related TEAE: Tremor,380 mg n=4,0
same,M2698-related TEAE: Vision blurred,380 mg n=4,0
same,M2698-related TEAE: Vomiting,380 mg n=4,1
same,M2698-related TEAE: White blood cell count decreased,380 mg n=4,0
same,M2698-related TEAE: Abnormal dreams,Overall N=62,6 (9.7) n (%)
same,M2698-related TEAE: Affect lability,Overall N=62,1 (1.6) n (%)
same,M2698-related TEAE: Alanine aminotransferase increased,Overall N=62,1 (1.6) n (%)
same,M2698-related TEAE: Amylase increased,Overall N=62,1 (1.6) n (%)
same,M2698-related TEAE: Anaemia,Overall N=62,2 (3.2) n (%)
same,M2698-related TEAE: Angina pectoris,Overall N=62,1 (1.6) n (%)
same,M2698-related TEAE: Anxiety,Overall N=62,1 (1.6) n (%)
same,M2698-related TEAE: Aphasia,Overall N=62,1 (1.6) n (%)
same,M2698-related TEAE: Ataxia,Overall N=62,1 (1.6) n (%)
same,M2698-related TEAE: Blood and lymphatic system disorders,Overall N=62,3 (4.8) n (%)
same,M2698-related TEAE: Blood creatine phosphokinase increased,Overall N=62,2 (3.2) n (%)
same,M2698-related TEAE: Blood creatinine increased,Overall N=62,2 (3.2) n (%)
same,M2698-related TEAE: Cardiac disorders,Overall N=62,1 (1.6) n (%)
same,M2698-related TEAE: Cognitive disorder,Overall N=62,1 (1.6) n (%)
same,M2698-related TEAE: Constipation,Overall N=62,3 (4.8) n (%)
same,M2698-related TEAE: Decreased appetite,Overall N=62,2 (3.2) n (%)
same,M2698-related TEAE: Delusion,Overall N=62,1 (1.6) n (%)
same,M2698-related TEAE: Depression,Overall N=62,2 (3.2) n (%)
same,M2698-related TEAE: Diarrhoea,Overall N=62,7 (11.3) n (%)
same,M2698-related TEAE: Diarrhoea haemorrhagic,Overall N=62,1 (1.6) n (%)
same,M2698-related TEAE: Dizziness,Overall N=62,1 (1.6) n (%)
same,M2698-related TEAE: Dry eye,Overall N=62,1 (1.6) n (%)
same,M2698-related TEAE: Dry mouth,Overall N=62,1 (1.6) n (%)
same,M2698-related TEAE: Dysgeusia,Overall N=62,2 (3.2) n (%)
same,M2698-related TEAE: Dyspepsia,Overall N=62,1 (1.6) n (%)
same,M2698-related TEAE: Dysphagia,Overall N=62,1 (1.6) n (%)
same,M2698-related TEAE: Energy increased,Overall N=62,1 (1.6) n (%)
same,M2698-related TEAE: Erythema,Overall N=62,1 (1.6) n (%)
same,M2698-related TEAE: Euphoric mood,Overall N=62,1 (1.6) n (%)
same,M2698-related TEAE: Eye disorders,Overall N=62,2 (3.2) n (%)
same,M2698-related TEAE: Fatigue,Overall N=62,4 (6.5) n (%)
same,M2698-related TEAE: Gamma-glutamyltransferase increased,Overall N=62,2 (3.2) n (%)
same,M2698-related TEAE: Gastrointestinal disorders,Overall N=62,18 (29.0) n (%)
same,M2698-related TEAE: Gastrooesophageal reflux disease,Overall N=62,1 (1.6) n (%)
same,M2698-related TEAE: General disorders and administration site conditions,Overall N=62,6 (9.7) n (%)
same,M2698-related TEAE: Headache,Overall N=62,1 (1.6) n (%)
same,M2698-related TEAE: Hyperhidrosis,Overall N=62,1 (1.6) n (%)
same,M2698-related TEAE: Hypokalaemia,Overall N=62,2 (3.2) n (%)
same,M2698-related TEAE: Hypomagnesaemia,Overall N=62,1 (1.6) n (%)
same,M2698-related TEAE: Insomnia,Overall N=62,2 (3.2) n (%)
same,M2698-related TEAE: Investigations,Overall N=62,9 (14.5) n (%)
same,M2698-related TEAE: Lipase increased,Overall N=62,1 (1.6) n (%)
same,M2698-related TEAE: Lymphopenia,Overall N=62,1 (1.6) n (%)
same,M2698-related TEAE: Metabolism and nutrition disorders,Overall N=62,4 (6.5) n (%)
same,M2698-related TEAE: Mucosal inflammation,Overall N=62,1 (1.6) n (%)
same,M2698-related TEAE: Nausea,Overall N=62,12 (19.4) n (%)
same,M2698-related TEAE: Nervous system disorders,Overall N=62,10 (16.1) n (%)
same,M2698-related TEAE: Nightmare,Overall N=62,1 (1.6) n (%)
same,M2698-related TEAE: Onychomadesis,Overall N=62,1 (1.6) n (%)
same,M2698-related TEAE: Paranoia,Overall N=62,1 (1.6) n (%)
same,M2698-related TEAE: Photosensitivity reaction,Overall N=62,1 (1.6) n (%)
same,M2698-related TEAE: Posterior reversible encephalopathy syndrome,Overall N=62,1 (1.6) n (%)
same,M2698-related TEAE: Pruritus generalised,Overall N=62,1 (1.6) n (%)
same,M2698-related TEAE: Psychiatric disorders,Overall N=62,10 (16.1) n (%)
same,M2698-related TEAE: Rash,Overall N=62,1 (1.6) n (%)
same,M2698-related TEAE: Rash maculo-papular,Overall N=62,2 (3.2) n (%)
same,M2698-related TEAE: Skin and subcutaneous tissue disorders,Overall N=62,8 (12.9) n (%)
same,M2698-related TEAE: Subjects with at least one event,Overall N=62,34 (54.8) n (%)
same,M2698-related TEAE: Transaminases increased,Overall N=62,1 (1.6) n (%)
same,M2698-related TEAE: Tremor,Overall N=62,4 (6.5) n (%)
same,M2698-related TEAE: Vision blurred,Overall N=62,1 (1.6) n (%)
